The supplement of paper PMC10307832

Legend:
Assay in all cases: relative viability (nuclei count vs DMSO), 5 days (fraction); higher = more cells survive
[1] = compound: COc1cccc2cc(-c3nc([C@H]4CC[C@H](C(=O)O)CC4)n4ncnc(N)c34)[nH]c12 [OSI-027] + N=C(N)NC(=N)NCCc1ccccc1 [Phenformin] (partner 250 µM)
How it was run: (§1)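 Five library-drug doses in √10 steps were combined with a fixed anchor-drug dose, or a single drug was given alone, by pin tool to lung cancer cell lines in 1536-well plates the day after seeding. Nuclei were stained and counted after 5 days. Relative viability is the nuclei count in treated wells over that in vehicle wells, taken as the median of duplicate plates.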

[2] = compound: COc1cccc2cc(-c3nc([C@H]4CC[C@H](C(=O)O)CC4)n4ncnc(N)c34)[nH]c12 [OSI-027] + O=C(CCCCCCC(=O)Nc1ccccc1)NO [Vorinostat] (partner 1 µM)
How it was run: as §1

[3] = compound: COc1cccc2cc(-c3nc([C@H]4CC[C@H](C(=O)O)CC4)n4ncnc(N)c34)[nH]c12 [OSI-027] + Nc1ncn([C@H]2C[C@H](O)[C@@H](CO)O2)c(=O)n1 [Decitabine] (partner 2 µM)
How it was run: as §1

[4] = compound: CCCS(=O)(=O)Nc1ccc(F)c(C(=O)c2c[nH]c3ncc(-c4ccc(Cl)cc4)cc23)c1F [Vemurafenib] + CS(=O)(=O)CCNCc1ccc(-c2ccc3ncnc(Nc4ccc(OCc5cccc(F)c5)c(Cl)c4)c3c2)o1 [Lapatinib] (partner 2 µM)
How it was run: as §1

Cell Line	relative viability ([1]; first compound 0.01 µM)	relative viability ([1]; first compound 0.03162 µM)	relative viability ([1]; first compound 0.1 µM)	relative viability ([1]; first compound 0.3162 µM)	relative viability ([1]; first compound 1 µM)	relative viability ([2]; first compound 0.01 µM)	relative viability ([2]; first compound 0.03162 µM)	relative viability ([2]; first compound 0.1 µM)	relative viability ([2]; first compound 0.3162 µM)	relative viability ([2]; first compound 1 µM)	relative viability ([3]; first compound 0.01 µM)	relative viability ([3]; first compound 0.03162 µM)	relative viability ([3]; first compound 0.1 µM)	relative viability ([3]; first compound 0.3162 µM)	relative viability ([3]; first compound 1 µM)	relative viability ([4]; first compound 0.03162 µM)	relative viability ([4]; first compound 0.3162 µM)	relative viability ([4]; first compound 1 µM)	relative viability ([4]; first compound 0.1 µM)
NCI-H322M	0.737	0.748	0.674	0.531	0.498	0.869	0.863	0.748	0.663	0.624	0.66	0.658	0.694	0.662	0.542	0.583	0.801	0.491	–
NCI-H358	0.309	0.301	0.311	0.334	0.283	0.751	0.653	0.717	0.664	0.503	0.191	0.182	0.199	0.232	0.178	0.408	0.505	0.407	–
NCI-H460	0.656	0.648	0.567	0.542	0.224	1.06	0.594	0.685	0.65	0.219	0.544	0.502	0.541	0.456	0.241	0.929	0.82	0.926	1.08
NCI-H520	0.581	0.456	0.28	0.21	0.187	0.729	0.712	0.693	0.557	0.368	0.583	0.482	0.47	0.363	0.228	0.759	0.859	0.751	0.839
NCI-H596	0.875	0.576	0.844	0.865	0.614	0.459	0.685	0.497	0.523	0.416	1.1	1.08	1.1	1.03	0.82	1.04	0.874	1.07	1.03
NCI-H647	0.569	0.565	0.475	0.415	0.242	0.656	0.468	0.385	0.363	0.36	0.385	0.543	0.397	0.248	0.211	0.951	0.852	0.949	1.06
NCI-H650	0.424	0.487	0.394	0.417	0.285	0.495	0.479	0.325	0.303	0.232	0.303	0.317	0.288	0.3	0.276	0.838	0.313	0.681	1.15
NCI-H661	0.263	0.286	0.254	0.258	0.245	0.806	0.801	0.759	0.717	0.458	0.521	0.522	0.491	0.417	0.327	0.488	0.507	0.424	0.534
NCI-H727	0.569	0.546	0.557	0.466	0.407	1.08	1.06	1.11	1.23	1.03	0.808	0.778	0.849	0.774	0.761	0.653	1.16	0.886	0.772
NCI-H838	0.588	0.62	0.479	0.339	0.28	0.65	0.646	0.632	0.55	0.459	0.503	0.483	0.403	0.378	0.337	0.877	–	1.12	1.05
NCI-H1355	0.409	0.45	0.46	0.407	0.304	0.648	0.632	0.622	0.475	0.3	0.329	0.437	0.356	0.376	0.243	0.962	0.837	1.08	0.956
NCI-H1395	0.446	0.431	0.396	0.401	0.369	0.633	0.745	0.476	0.645	0.567	0.696	0.742	0.684	0.645	0.532	0.891	–	1.19	0.95
NCI-H1437	0.31	0.292	0.296	0.286	0.211	0.859	0.767	0.861	0.848	0.521	0.499	0.614	0.63	0.493	0.387	0.748	0.698	0.876	0.793
NCI-H1650	0.37	0.366	0.444	0.378	0.253	0.56	0.515	0.532	0.407	0.358	0.454	0.45	0.471	0.308	0.314	0.7	0.699	0.738	–
NCI-H1651	0.364	0.285	0.299	0.256	0.25	0.57	0.482	0.509	0.528	0.469	0.629	0.553	0.576	0.561	0.515	0.853	0.756	0.824	0.772
NCI-H1666	0.548	0.603	0.556	0.639	0.578	0.993	1.02	1.01	0.915	0.667	0.719	0.7	0.741	0.624	0.555	0.581	0.72	0.654	–
NCI-H1734	0.398	0.398	0.384	0.346	0.238	0.912	0.781	0.728	0.707	0.455	0.559	0.595	0.503	0.265	0.417	0.872	0.903	0.993	1.04

Cell Line	relative viability ([1]; first compound 0.01 µM)	relative viability ([1]; first compound 0.03162 µM)	relative viability ([1]; first compound 0.1 µM)	relative viability ([1]; first compound 0.3162 µM)	relative viability ([1]; first compound 1 µM)	relative viability ([2]; first compound 0.01 µM)	relative viability ([2]; first compound 0.03162 µM)	relative viability ([2]; first compound 0.1 µM)	relative viability ([2]; first compound 0.3162 µM)	relative viability ([2]; first compound 1 µM)	relative viability ([3]; first compound 0.01 µM)	relative viability ([3]; first compound 0.03162 µM)	relative viability ([3]; first compound 0.1 µM)	relative viability ([3]; first compound 0.3162 µM)	relative viability ([3]; first compound 1 µM)	relative viability ([4]; first compound 0.03162 µM)	relative viability ([4]; first compound 0.3162 µM)	relative viability ([4]; first compound 1 µM)	relative viability ([4]; first compound 0.1 µM)
NCI-H1755	0.615	0.696	0.594	0.569	0.451	0.72	0.855	0.655	0.711	0.472	0.75	0.716	0.702	0.654	0.503	0.925	0.777	0.988	1.02
NCI-H1793	0.365	0.367	0.306	0.297	0.184	0.713	0.777	0.444	0.377	0.281	0.457	0.493	0.436	0.329	0.259	0.442	0.645	0.872	–
NCI-H1915	0.38	0.38	0.359	0.381	0.32	0.542	0.502	0.479	0.426	0.34	0.25	0.257	0.262	0.26	0.242	0.894	0.87	0.985	0.951
NCI-H1944	0.2	0.222	0.19	0.172	0.137	0.571	0.543	0.575	0.431	0.378	0.427	0.46	0.405	0.443	0.303	0.818	0.725	0.789	0.815
NCI-H1975	0.435	0.412	0.379	0.363	0.298	0.722	0.647	0.672	0.657	0.496	0.392	0.395	0.398	0.434	0.4	0.806	0.709	0.919	0.983
NCI-H1993	0.529	0.472	0.492	0.546	0.547	0.86	0.967	0.717	0.474	0.449	0.53	0.538	0.569	0.432	0.431	0.843	0.8	0.793	–
NCI-H2009	0.477	0.48	0.487	0.425	0.277	0.735	0.718	0.708	0.675	0.588	0.418	0.354	0.339	0.36	0.295	0.897	0.559	0.759	0.876
NCI-H2023	0.452	0.367	0.397	0.301	0.213	0.7	0.698	0.526	0.581	0.34	0.202	0.213	0.2	0.207	0.149	0.734	0.736	0.725	0.812
NCI-H2085	0.727	0.701	0.704	0.623	0.503	0.714	0.73	0.76	0.648	0.549	0.545	0.562	0.611	0.52	0.446	0.729	0.766	0.695	0.778
NCI-H2087	0.495	0.492	0.424	0.398	0.271	0.971	0.769	0.613	0.815	0.161	0.268	0.228	0.24	0.214	0.16	0.761	–	0.967	0.981
NCI-H2126	0.527	0.555	0.437	0.405	0.404	0.703	0.682	0.692	0.627	0.586	0.558	0.553	0.565	0.523	0.601	0.753	0.862	0.731	0.783
NCI-H2170	0.429	0.401	0.431	0.436	0.275	0.779	0.814	0.806	0.662	0.454	0.459	0.491	0.463	0.421	0.31	0.277	0.266	0.267	0.244
NCI-H2347	0.442	0.371	0.293	0.262	0.296	0.556	0.403	0.55	0.447	0.339	0.639	0.635	0.621	0.577	0.454	0.794	0.628	0.637	1.02
NCI-H2405	0.39	0.355	0.338	0.327	0.27	1.04	1.02	0.899	0.831	0.549	0.688	0.74	0.709	0.634	0.451	0.935	–	1.1	0.986
NCI-H3122	0.409	0.41	0.454	0.443	0.288	0.991	1.09	1.06	0.93	0.732	0.415	0.547	0.457	0.345	0.154	1.03	1.12	1.02	1.04
PC-3 [JPC-3]	0.482	0.465	0.49	0.449	0.433	0.649	0.787	0.454	0.56	0.527	0.769	0.841	0.768	0.684	0.628	0.464	0.626	0.445	–
PC-14	0.582	0.466	0.488	0.392	0.276	0.734	0.72	0.585	0.698	0.445	0.208	0.278	0.239	0.231	0.217	0.255	0.287	0.362	–
